According to ChEMBL document CHEMBL5321233, “Biological activity of 1,2,3-triazole-2-amino-1,4-naphthoquinone derivatives and their evaluation as therapeutic strategy for malaria control” (Eur J Med Chem, 2023):
Activity calls are given as the source filed them. No cut-off for these calls is given here.

Experiments:
[1] = Acute toxicity in Albino Swiss mouse assessed as change in relative weight of liver at 300 mg/kg, po administered as single dose measured after 14 days; format: organism-based; conditions: in vivo, 336 h, time 14 day
[2] = Octanol-water partition coefficient, logP of the compound; format: physicochemical
[3] = Toxicity in Albino Swiss mouse infected with Plasmodium berghei ANKA assessed as mortality rate at 30 mg/kg, po administered for 4 consecutive days measured for 14 days relative to control; format: organism-based; conditions: in vivo, time 14 day, read-out: Activity
[4] = Acute toxicity in Albino Swiss mouse assessed as change in sensory function at 300 mg/kg, po administered as single dose measured after 14 days; format: organism-based; conditions: in vivo, 336 h, time 14 day
[5] = Acute toxicity in Albino Swiss mouse assessed as pathological changes in kidney at 300 mg/kg, po administered as single dose measured after 14 days by H and E staining based analysis; format: organism-based; conditions: in vivo, 336 h, time 14 day
[6] = Acute toxicity in Albino Swiss mouse assessed as macroscopic alterations in liver at 300 mg/kg, po administered as single dose measured after 14 days by H and E staining based analysis; format: organism-based; conditions: in vivo, 336 h, time 14 day
[7] = Cytotoxicity against African green monkey Vero cells incubated for 24 hrs by MTT assay; format: toxicity, cell-based; conditions: chlorocebus sabaeus
[8] = Selectivity index, ratio of CC50 for African green monkey Vero cells to IC50 for chloroquine-resistant Plasmodium falciparum W2 infected in human erythrocytes; format: toxicity, cell-based; conditions: read-out: Ratio CC50/IC50
[9] = Acute toxicity in Albino Swiss mouse assessed as pathological lesions in liver at 300 mg/kg, po administered as single dose measured after 14 days by H and E staining based analysis; format: organism-based; conditions: in vivo, 336 h, time 14 day
[10] = Acute toxicity in Albino Swiss mouse assessed as escape reaction at 300 mg/kg, po administered as single dose measured after 14 days; format: organism-based; conditions: in vivo, 336 h, time 14 day
[11] = Acute toxicity in Albino Swiss mouse assessed as change in defecation at 300 mg/kg, po administered as single dose measured after 14 days; format: organism-based; conditions: in vivo, 336 h, time 14 day
[12] = Acute toxicity in Albino Swiss mouse assessed as behavioural toxicity at 300 mg/kg, po administered as single dose measured after 14 days; format: organism-based; conditions: in vivo, 336 h, time 14 day
Plasmodium falciparum [13] = experiment: Induction of morphological changes in chloroquine-resistant Plasmodium falciparum W2 trophozoites assessed as loss of membrane integrity by TEM analysis; format: functional, organism-based
Plasmodium falciparum [14] = experiment: Induction of morphological changes in chloroquine-resistant Plasmodium falciparum W2 trophozoites assessed as deteriorated food vacuole by TEM analysis; format: functional, organism-based
[15] = Acute toxicity in Albino Swiss mouse assessed as change in motor function at 300 mg/kg, po administered as single dose measured after 14 days; format: organism-based; conditions: in vivo, 336 h, time 14 day
[16] = Acute toxicity in Albino Swiss mouse assessed as change in urine color at 300 mg/kg, po administered as single dose measured after 14 days; format: organism-based; conditions: in vivo, 336 h, time 14 day
[17] = Acute toxicity in Albino Swiss mouse assessed as change in diarrhea at 300 mg/kg, po administered as single dose measured after 14 days; format: organism-based; conditions: in vivo, 336 h, time 14 day
HepG2 = experiment: Cytotoxicity against human HepG2 cells incubated for 24 hrs by MTT assay; format: functional
Plasmodium berghei [18] = experiment: Antimalarial activity against Plasmodium berghei ANKA infected in Albino Swiss mouse assessed as half-survival time at 30 mg/kg, po administered for 4 consecutive days measured for 30 days (reference value: 16 day); format: functional; conditions: time 30 day
[19] = Acute toxicity in Albino Swiss mouse assessed as change in relative weight of kidney at 300 mg/kg, po administered as single dose measured after 14 days; format: organism-based; conditions: in vivo, 336 h, time 14 day
Plasmodium falciparum [20] = experiment: Antimalarial activity against chloroquine-resistant Plasmodium falciparum W2 infected in human erythrocytes assessed as parasite growth inhibition incubated for 48 hrs by geimsa staining based microscopy; format: functional, organism-based; conditions: W2, Erythrocyte
[21] = Acute toxicity in Albino Swiss mouse assessed as signs of cyanosis at 300 mg/kg, po administered as single dose measured after 14 days; format: organism-based; conditions: in vivo, 336 h, time 14 day
Plasmodium falciparum [22] = experiment: Induction of morphological changes in chloroquine-resistant Plasmodium falciparum W2 trophozoites assessed as degraded cytoplasm by TEM analysis relative to control; format: functional
[23] = Hemolytic activity in human red blood cells assessed as hemoglobin release at 250 to 15.6 uM incubated for 60 mins by spectrophotometry; format: toxicity, cell-based, Erythrocyte; conditions: dose 250-15.6 µM, read-out: Activity
[24] = Acute toxicity in Albino Swiss mouse assessed as signs of toxicity at 300 mg/kg, po administered as single dose measured after 14 days; format: organism-based; conditions: in vivo, 336 h, time 14 day
Plasmodium berghei [25] = experiment: Antimalarial activity against Plasmodium berghei ANKA infected in Albino Swiss mouse assessed as reduction in parasitemia at 30 mg/kg, po administered for 4 consecutive days measured after day 7 relative to control; format: functional; design: scale not given: the % may be the effect or the level left; conditions: time 7 day
[26] = Acute toxicity in Albino Swiss mouse assessed as animal mortality at 300 mg/kg, po administered as single dose measured after 14 days; format: organism-based; conditions: in vivo, 336 h, time 14 day
[27] = Selectivity index, ratio of CC50 for human HepG2 cells to IC50 for chloroquine-resistant Plasmodium falciparum W2 infected in human erythrocytes; format: toxicity, cell-based; conditions: read-out: Ratio CC50/IC50
[28] = Acute toxicity in Albino Swiss mouse assessed as aggressiveness at 300 mg/kg, po administered as single dose measured after 14 days; format: organism-based; conditions: in vivo, 336 h, time 14 day
[29] = Acute toxicity in Albino Swiss mouse assessed as signs of hyperemia at 300 mg/kg, po administered as single dose measured after 14 days; format: organism-based; conditions: in vivo, 336 h, time 14 day
[30] = Acute toxicity in Albino Swiss mouse assessed as pathological damage in spleen at 300 mg/kg, po administered as single dose measured after 14 days by H and E staining based analysis; format: organism-based; conditions: in vivo, 336 h, time 14 day
[31] = Acute toxicity in Albino Swiss mouse assessed as contortions at 300 mg/kg, po administered as single dose measured after 14 days; format: organism-based; conditions: in vivo, 336 h, time 14 day
[32] = Hemolytic activity in human red blood cells type A assessed as hemoglobin release at 500 to 1000 uM incubated for 60 mins by spectrophotometry; format: toxicity, cell-based, Erythrocyte; conditions: dose 500-1000 µM, read-out: Activity
[33] = Acute toxicity in Albino Swiss mouse assessed as signs of pallor at 300 mg/kg, po administered as single dose measured after 14 days; format: organism-based; conditions: in vivo, 336 h, time 14 day
[34] = Acute toxicity in Albino Swiss mouse assessed as change in relative weight of spleen at 300 mg/kg, po administered as single dose measured after 14 days; format: organism-based; conditions: in vivo, 336 h, time 14 day
[35] = Acute toxicity in Albino Swiss mouse assessed as change in urination volume at 300 mg/kg, po administered as single dose measured after 14 days; format: organism-based; conditions: in vivo, 336 h, time 14 day
Plasmodium falciparum [36] = experiment: Induction of morphological changes in chloroquine-resistant Plasmodium falciparum W2 trophozoites assessed as dense cytoplasm with undefined organelles by TEM analysis; format: functional, organism-based

COc1ccc(-c2cn(CCNC3=CC(=O)c4ccccc4C3=O)nn2)cc1
Activity [1]: Non-Toxic
logP [2]: 2.72
mortality at 336 h [3]: 20%
Activity [4]: Non-Toxic
Activity [5]: Non-Toxic
Activity [6]: Non-Toxic
CC50 at 24 h [7]: 401 µM
selectivity ratio [8]: 95.8
Activity [9]: Toxic
Activity [10]: Non-Toxic
Activity [11]: Non-Toxic
Activity [12]: Non-Toxic
Activity (Plasmodium falciparum [13]): Active
Activity (Plasmodium falciparum [14]): Active
Activity [15]: Non-Toxic
Activity [16]: Non-Toxic
Activity [17]: Non-Toxic
CC50 (HepG2): 289 µM
Survival (Plasmodium berghei [18]): 26 days
Activity [19]: Non-Toxic
IC50 (Plasmodium falciparum [20]): 4.2 µM
Activity [21]: Non-Toxic
Activity (Plasmodium falciparum [22]): 100%
hemolysis at 1 h [23]: < 40%
Activity [24]: Non-Toxic
Activity (Plasmodium berghei [25]): 33%
Activity [26]: Non-Toxic
selectivity ratio [27]: 68.8
Activity [28]: Non-Toxic
Activity [29]: Non-Toxic
Activity [30]: Non-Toxic
Activity [31]: Non-Toxic
hemolysis at 1 h, up to 1000 µM [32]: > 40%
Activity [33]: Non-Toxic
Activity [34]: Non-Toxic
Activity [35]: Non-Toxic
Activity (Plasmodium falciparum [36]): Active

CC(C)(O)c1cn(CCNC2=CC(=O)c3ccccc3C2=O)nn1
Activity [1]: Non-Toxic
logP [2]: 1.38
Activity [4]: Non-Toxic
CC50 at 24 h [7]: 188 µM
selectivity ratio [8]: 28.5
Activity [10]: Non-Toxic
Activity [11]: Non-Toxic
Activity [12]: Non-Toxic
Activity [15]: Non-Toxic
Activity [16]: Non-Toxic
Activity [17]: Non-Toxic
CC50 (HepG2): 233 µM
Survival (Plasmodium berghei [18]): 14 days
Activity [19]: Non-Toxic
IC50 (Plasmodium falciparum [20]): 6.6 µM
Activity [21]: Non-Toxic
hemolysis at 1 h [23]: < 40%
Activity [24]: Non-Toxic
Activity [26]: Non-Toxic
selectivity ratio [27]: 35.3
Activity [28]: Non-Toxic
Activity [29]: Non-Toxic
Activity [31]: Non-Toxic
hemolysis at 1 h, up to 1000 µM [32]: > 40%
Activity [33]: Non-Toxic
Activity [34]: Non-Toxic
Activity [35]: Non-Toxic

Cc1ccc(-c2cn(CCNC3=CC(=O)c4ccccc4C3=O)nn2)cc1
Activity [1]: Non-Toxic
logP [2]: 3.12
mortality at 336 h [3]: 100%
Activity [4]: Non-Toxic
CC50 at 24 h [7]: 207 µM
selectivity ratio [8]: 13.7
Activity [10]: Non-Toxic
Activity [11]: Non-Toxic
Activity [12]: Non-Toxic
Activity [15]: Non-Toxic
Activity [16]: Non-Toxic
Activity [17]: Non-Toxic
CC50 (HepG2): 104 µM
Survival (Plasmodium berghei [18]): 14 days
Activity [19]: Non-Toxic
IC50 (Plasmodium falciparum [20]): 15.1 µM
Activity [21]: Non-Toxic
hemolysis at 1 h [23]: < 40%
Activity [24]: Non-Toxic
Activity [26]: Non-Toxic
selectivity ratio [27]: 6.88
Activity [28]: Non-Toxic
Activity [29]: Non-Toxic
Activity [31]: Non-Toxic
hemolysis at 1 h, up to 1000 µM [32]: > 40%
Activity [33]: Non-Toxic
Activity [34]: Non-Toxic
Activity [35]: Non-Toxic

O=C1C=C(NCCn2cc(-c3ccccc3)nn2)C(=O)c2ccccc21
Activity [1]: Non-Toxic
logP [2]: 2.67
Activity [4]: Non-Toxic
CC50 at 24 h [7]: 116 µM
selectivity ratio [8]: 143
Activity [10]: Non-Toxic
Activity [11]: Non-Toxic
Activity [12]: Non-Toxic
Activity [15]: Non-Toxic
Activity [16]: Non-Toxic
Activity [17]: Non-Toxic
CC50 (HepG2): 278 µM
Survival (Plasmodium berghei [18]): 13 days
Activity [19]: Non-Toxic
IC50 (Plasmodium falciparum [20]): 0.81 µM
Activity [21]: Non-Toxic
hemolysis at 1 h [23]: < 40%
Activity [24]: Non-Toxic
Activity [26]: Non-Toxic
selectivity ratio [27]: 343
Activity [28]: Non-Toxic
Activity [29]: Non-Toxic
Activity [31]: Non-Toxic
hemolysis at 1 h, up to 1000 µM [32]: > 40%
Activity [33]: Non-Toxic
Activity [34]: Non-Toxic
Activity [35]: Non-Toxic
